US5498624A, “Selected pyrazolyl derivatives” (Monsanto Company, priority 1995, dated 1996)

What was measured:
[1] = system: Erysiphe graminis f. sp. tritici; test: Wheat Powdery Mildew Foliar Assay (WPM Prot); assay type: in vivo
Method: A) Pathogen/Inoculum Production--Leaf material infected with the wheat powdery mildew fungus, Erysiphe graminis f. sp. tritici, is maintained continuously on wheat seedlings, cv. Caldewell.
(B) Host Propagation, (C) Compound Preparation and (D) Compound Application follow as per Example 1.
(E) Inoculation/Incubation--Inoculation of the test plants takes place 24 hours after compound application. Inoculation is accomplished by gently shaking plants previously infected with the Erysiphe graminis f. sp. tritici fungus over the test plants. This process liberates a cloud of spores which effectively and uniformly fall onto the test plants. After inoculation the plants are returned to the environmental conditions under which they were grown.
(F) Evaluation and (G) Data follow as per Example 1. The percent protection values for the compounds of the present invention are as set out in the Table below.

Septoria nodorum = test: Wheat Glume Blotch (WGB) In Vitro; assay type: cell-based; set-up: key: 0: no inhibition of mycelial growth; 1: slight inhibition of mycelial growth; 2: moderate inhibition of mycelial growth; 3: strong inhibition of mycelial growth; conditions: 4-6 days at 25° C.
Method: A) Pathogen/Inoculum Production--The wheat glume blotch fungus, Septoria nodorum, is cultured on yeast/malt agar at 22° C. and 12 hours fluorescent light. Several sterile loops full of mature pycnidia produced on a 7 day old culture plates are added to 30 mls of 1/4 strength potato dextrose broth. After 15 minutes the suspension is stirred, and adjusted to a concentration of 3×10^5 spores/mi.
B) Compound Preparation and Test Execution--200 μl of 1/4 strength potato dextrose broth is placed in each well of a 96 well microtiter plate. […] The commercial standard used is flusilazole, at equivalent rates.
C) Inoculation/Incubation--50 μl of a 3×10^5 spores/ml suspension obtained using the method above is added to each well. The 96-well plate is incubated for 4-6 days at 25° C., 12 hours fluorescent light.
D) Evaluation--After incubation, each well is visually assessed for growth inhibition on the following 0-3 scale:
0=no inhibition of mycelial growth
1=slight inhibition of mycelial growth
2=moderate inhibition of mycelial growth
3=strong inhibition of mycelial growth

Botrytis cinerea [2] = test: Vine Grey Mold on Berries (VGM Prot); assay type: in vivo; conditions: grape berries, inoculated 24 hours after treatment
Method: A) Pathogen/Inoculum Production--The grey mold fungus, Botrytis cinerea, is cultured on PDA at 20° C. and 12 hours fluorescent light until the radial growth is slightly less than the plate diameter. A 1×10^6spore/ml suspension in sterile water (0.05% Tween®20) is made by dislodging spores in a flooded plate, filtering out mycelium, and adjusting the concentration.
B) Host Preparation--Thompson or Red Flame seedless table grapes from local grocery stores are used. Grapes are washed first in room temperature soapy water solution (a few drops of detergent per gallon), and then surfaced sterilized in 70% ethanol for one minute, followed by two rinses in sterile water. Berries are chosen which still have stem (pedicel) attached.
1) Experimental compounds--Each of the compounds of the present invention are applied at 200, 50, and 20 ppm. Formulation is generally in 40% acetone, 59.95% water, and 0.05% Tween®20. Replication is 6 berries per treatment. Compound is pipetted onto berries at 1.0 ml/treatment (6 berries) in a sterile petri plate. After drying, each berry is transferred to an individual well in a 12-well tissue culture plate. Formulated materials, such as commercial preparations are generally applied using the formulation only (no acetone or surfactant added).
2) Controls and Standards--Three technical grade commercial standards are used, usually at 200 and 50 ppm; benomyl, iprodione, and vinclozolin. The test controls include a uninoculated, formulation treated set as well as an inoculated, formulation treated set.
D) Inoculation/Incubation--Each berry is inoculated with 0.2 ml of spore suspension, using a sterile pipet. Incubation is in the 12-well culture plates at 20° C., 12 hour photoperiod.
E) Test Execution--One day protectant--Berries are inoculated as described 24 hours after chemical treatment.
F) Evaluation--The test is rated 7-10 days after inoculation. Percent surface area infected with disease is determined for each replicate using the values of 0, 1, 2, 5, 10, 15, 20, 25, etc. through 100%. Treatment means are calculated and percent disease control is determined by the formula "(control mean--treatment mean)*100/control mean". The untreated/inoculated control treatment is used for this calculation. The resultant percent protection or percent disease control values for the compounds of the present invention are as set out in the Table below.

Botrytis cinerea [3] = test: Vine Grey Mold on Berries (VGM Cur); assay type: in vivo; conditions: grape berries, treated 24 hours after inoculation
Method: Vine Grey Mold on Berries (VGM Cur)--Assay is as set out above in EXAMPLE 11 except for step E) which is: Test Execution--In the curative test the berries are first inoculated as described, six per petri plate and placed in incubation. After 24 hours, the berries are temporarily removed from incubation, placed into 12-well tissue culture plates (one per well), treated, and then returned to incubation.

[4] = 20 ppm foliar protectant, * = averaged value
[5] = 100 ppm foliar protectant, * = averaged value

C[C@@H]1CCC[C@H](c2ccccc2NC(=O)c2cn(C)nc2C(F)F)C1 (relative stereo) [Number 2, 1H-pyrazole-4-carboxamide, 3-(difluoromethyl)-1-methyl-N-[2-(-3-methylcyclohexyl)phenyl]-, cis-]
WPM Prot percent disease control [1, 4]: 44%
WPM Prot percent disease control [1, 5]: 65%
WGB In Vitro growth inhibition 0-3 scale (Septoria nodorum; 0.1 ppm): 0
WGB In Vitro growth inhibition 0-3 scale (Septoria nodorum; 0.5 ppm): 1
WGB In Vitro growth inhibition 0-3 scale (Septoria nodorum; 5.0 ppm): 2
VGM Prot percent disease control (Botrytis cinerea [2]; 20 ppm, * = averaged value): 90%
VGM Prot percent disease control (Botrytis cinerea [2]; 50 ppm, * = averaged value): 93%
VGM Prot percent disease control (Botrytis cinerea [2]; 200 ppm): 99%
VGM Cur percent disease control (Botrytis cinerea [3]; 20 ppm): 41%
VGM Cur percent disease control (Botrytis cinerea [3]; 50 ppm): 82%

C[C@H]1CCC[C@H](c2ccccc2NC(=O)c2cn(C)nc2C(F)F)C1 (relative stereo) [Number 3, 1H-pyrazole-4-carboxamide, 3-(difluoromethyl)-1-methyl-N-[2-(3-methylcyclohexyl)phenyl]-, trans-]
WPM Prot percent disease control [1, 4]: 77%
WPM Prot percent disease control [1, 5]: 100%
WGB In Vitro growth inhibition 0-3 scale (Septoria nodorum; 0.1 ppm): 0
WGB In Vitro growth inhibition 0-3 scale (Septoria nodorum; 0.5 ppm): 0
WGB In Vitro growth inhibition 0-3 scale (Septoria nodorum; 5.0 ppm): 0
VGM Prot percent disease control (Botrytis cinerea [2]; 20 ppm, * = averaged value): 67%
VGM Prot percent disease control (Botrytis cinerea [2]; 50 ppm, * = averaged value): 87%
VGM Cur percent disease control (Botrytis cinerea [3]; 20 ppm): 84%
VGM Cur percent disease control (Botrytis cinerea [3]; 50 ppm): 90%

Cn1cc(C(=O)Nc2ccccc2[C@@H]2CCC[C@@H](C(F)(F)F)C2)c(C(F)F)n1 (relative stereo) [Number 6]
WPM Prot percent disease control ([1]; 500 ppm foliar protectant): 98%
WGB In Vitro growth inhibition 0-3 scale (Septoria nodorum; 0.1 ppm): 0
WGB In Vitro growth inhibition 0-3 scale (Septoria nodorum; 0.5 ppm): 0
WGB In Vitro growth inhibition 0-3 scale (Septoria nodorum; 5.0 ppm): 1

CC[C@H]1CC[C@@H](c2ccccc2NC(=O)c2cn(C)nc2C(F)F)CC1 [Number 1, 1H-pyrazole-4-carboxamide, 3-(difluoromethyl)-N-[2-(4-ethylcyclohexyl)phenyl]-1-methyl-, cis-]
WGB In Vitro growth inhibition 0-3 scale (Septoria nodorum; 0.1 ppm): 0
WGB In Vitro growth inhibition 0-3 scale (Septoria nodorum; 0.5 ppm): 3
WGB In Vitro growth inhibition 0-3 scale (Septoria nodorum; 5.0 ppm): 3
VGM Prot percent disease control (Botrytis cinerea [2]; 50 ppm, * = averaged value): 93%
VGM Prot percent disease control (Botrytis cinerea [2]; 200 ppm): 99%

Cn1cc(C(=O)Nc2ccccc2[C@H]2CC[C@H](C)CC2)c(C(F)(F)F)n1 [Number 4, 1H-pyrazole-4-carboxamide, 1-methyl-N-[2-(4-methylcyclohexyl)phenyl]-3-(trifluoromethyl)-, trans-]
WPM Prot percent disease control [1, 4]: 65%
WPM Prot percent disease control [1, 5]: 91%
WPM Prot percent disease control ([1]; 500 ppm foliar protectant): 100%
WGB In Vitro growth inhibition 0-3 scale (Septoria nodorum; 0.1 ppm): 1
WGB In Vitro growth inhibition 0-3 scale (Septoria nodorum; 0.5 ppm): 1
WGB In Vitro growth inhibition 0-3 scale (Septoria nodorum; 5.0 ppm): 2
VGM Prot percent disease control (Botrytis cinerea [2]; 20 ppm, * = averaged value): 41%
VGM Prot percent disease control (Botrytis cinerea [2]; 50 ppm, * = averaged value): 67%
VGM Cur percent disease control (Botrytis cinerea [3]; 20 ppm): 19%
VGM Cur percent disease control (Botrytis cinerea [3]; 50 ppm): 69%

Cn1cc(C(=O)Nc2ccccc2C2CCC(C)(C)CC2)c(C(F)F)n1 [Number 5, 1H-pyrazole-4-carboxamide, 3-(difluoromethyl)-N-(2-(4,4-dimethylcyclohexyl)phenyl]-1-methyl-]
WPM Prot percent disease control [1, 4]: 52%
WPM Prot percent disease control [1, 5]: 79%
WPM Prot percent disease control ([1]; 500 ppm foliar protectant): 92%
WGB In Vitro growth inhibition 0-3 scale (Septoria nodorum; 0.1 ppm): 0
WGB In Vitro growth inhibition 0-3 scale (Septoria nodorum; 0.5 ppm): 2
WGB In Vitro growth inhibition 0-3 scale (Septoria nodorum; 5.0 ppm): 2
